Measured values reported in ChEMBL document CHEMBL6153043, “Anthelmintic Potential of Conjugated Long-Chain Fatty Acids Isolated from the Bioluminescent Mushroom Neonothopanus gardneri” (J Nat Prod, 2025).

Columns and labels:
[1] = Toxicity against L4 stage of Caenorhabditis elegans assessed as effect on viability by measuring mobility at 25 to 200 uM incubated for 24 hrs by inverted microscopic analysis; details: dose 25-200 µM
[2] = Selectivity index, ratio of CC50 for African green monkey Vero cells to EC50 for anti-schistosomal activity against female Schistosoma mansoni; format: toxicity, cell-based; details: read-out: Ratio CC50/EC50
[3] = Selectivity index, ratio of CC50 for African green monkey Vero cells to EC50 for anti-schistosomal activity against male Schistosoma mansoni; format: toxicity, cell-based; details: read-out: Ratio CC50/EC50

Row | Structure (SMILES) | Activity [1] | selectivity ratio [2] | selectivity ratio [3]
1 | CCCCCCCC/C=C\[C@@H](O)[C@H](O)CCCCCC(=O)O | Non-toxic | > 6.13 | > 24.1
2 | O=C(C1CCCCC1)N1CC(=O)N2CCc3ccccc3C2C1 (stereo not given) [PRAZIQUANTEL] | – | > 333 | > 250
